# Key:
# [1] = test system: HIV-2 ROD; test: Virucidal assay: virus pre-incubated with compound, diluted, titrated on MT-4 cells; conditions: for CCID50/ml HIV-2 ROD: no drug 5.4 × 10^6
# [2] = test system: HSV; test: Activity against replication of non-retroviruses; format: cell-based
# [3] = test system: NC(11-55); test: Zinc ejection monitored by supramolecular mass spectrometry; format: biochemical, HIV-1; conditions: non-denaturing MS, Vc = 20 V, Pi = 6 mbar
# Description: Purity and homogeneity of NC(11-55) were verified by mass analysis in denaturing conditions. In these acidic conditions, zinc is released from the peptide; and a molecular weight of 5137. 7 ± 0.4 Da was measured, in agreement with the expected mass of the zinc-free NC form (5137.9 Da). […] This is in contrast to the earlier discovered DIBA zinc ejectors for which the Zn ejection is accompanied by the formation of covalent complexes formed between the compound and Cys residues of Zn-depleted NCp7 [25].
# Figure 5 Zinc ejection as monitored by mass spectrometry. […] Under non-denaturing conditions (Vc = 20 V, Psi = 6 mbar), the mass measured for NCp7(11-55) alone is 5264.0 Da corresponding to the NC peptide complexed with two zinc ions.
# Before mass spectrometry (MS) analysis, NC(11-55) was dissolved and buffer exchanged with 50 mM ammonium acetate pH 7.0 using 4 cycles of microcentrifuge size exclusion filtering (Vivaspin 500 5kD, Sartorius Stedim biotech, Aubagne, France) and peptide concentration was measured by a Bradford assay. […]
# Analyses under non-denaturing conditions were carried out after careful optimization of instrumental settings to avoid dissociation of noncovalent bonds and obtain sensible detection of protein/zinc complexation states. […] Peak intensities were used to estimate the ratios of the different ions detected.
# [4] = Cytostatic activity, CEM cell proliferation; format: cell-based, human; conditions: human, CEM T-lymphocyte cells
# [5] = MTT-based viability assay in Jurkat cells; conditions: human
# [6] = test system: BCF-Dioum subtype G; test: Virucidal assay on clinical isolates, titration on PBMCs; format: cell-based, HIV-1; conditions: 125 μM, 1 h 37°C, untreated control 25781
# [7] = test system: HIV-1 virus particles; test: Virion-associated genomic RNA of pre-treated virus (RT-qPCR, Northern blot); conditions: compound-cleared HIV-1 virus stock, RT-qPCR or Northern blot
# [8] = test system: BZ163 subtype F; test: Virucidal assay on clinical isolates, titration on PBMCs; format: cell-based, HIV-1; conditions: 125 μM, 1 h 37°C, untreated control 16242
# [9] = test system: HIV-1 IIIB; test: MT-4/MTT-assay, protection against virus-induced cytopathic effect; format: cell-based; conditions: MT-4 cells, MTT, 5 days after infection
# [10] = test system: HIV-1 virus particles; test: Virion-associated p24 of pre-treated, compound-cleared virus (ELISA); conditions: compound-cleared HIV-1 virus stock
# [11] = test system: UG270 subtype D; test: Virucidal assay on clinical isolates, titration on PBMCs; format: cell-based, HIV-1; conditions: 125 μM, 1 h 37°C, untreated control 25781
# [12] = test system: NL4.3/DS5000R; test: GFP-assay in Jurkat A72 (LTR-GFP) cells; format: cell-based, HIV-1; conditions: Human immunodeficiency virus 1, Jurkat, 72 h, read-out: EC50 NL4.3/DS5000R
# [13] = test system: HIV-1 IIIB; test: Anti-HIV activity in CEM cells (cytopathogenicity); format: cell-based; conditions: Human immunodeficiency virus 1, IIIB, CCRF-CEM
# [14] = test system: CMV; test: Activity against replication of non-retroviruses; format: cell-based
# [15] = test system: HIV-1 IIIB; test: Virucidal assay: virus pre-incubated with compound, diluted, titrated on MT-4 cells; conditions: for CCID50/ml HIV-1 IIIB: no drug 1 × 10^6
# [16] = test system: NL4.3/AMD3100R; test: microbe, parasite or virus in culture; format: cell-based, HIV-1; conditions: Human immunodeficiency virus 1, Jurkat, 72 h, read-out: EC50 NL4.3/AMD3100R
# [17] = test system: HIV-1 IIIB; test: GFP-assay in Jurkat A72 (LTR-GFP) cells; format: cell-based; conditions: Human immunodeficiency virus 1, IIIB, 72 h, 3 days after infection
# [18] = test system: VSV; format: cell-based
# [19] = test system: NL4.3/WT; test: GFP-assay in Jurkat A72 (LTR-GFP) cells; format: cell-based, HIV-1; conditions: Human immunodeficiency virus 1, Jurkat, 72 h, read-out: EC50 NL4.3/WT
# [20] = test system: UG275 subtype A; test: Virucidal assay on clinical isolates, titration on PBMCs; format: cell-based, HIV-1; conditions: 125 μM, 1 h 37°C, untreated control 16242
# [21] = test system: HIV-2 ROD; test: MT-4/MTT-assay, protection against virus-induced cytopathic effect; format: cell-based; conditions: Human immunodeficiency virus 2, MT4, 120 h; MT-4 cells, MTT, 5 days after infection
# [22] = test system: HIV-1 NL4.3 capture by Raji/DC-SIGN cells; test: HIV capture by Raji/DC-SIGN cells (procedure A), p24 ELISA; conditions: HIV pretreated 1 h with compound, then Raji/DC-SIGN cells; p24 of washed cell pellet
# Description: After 60 minutes of pre-incubation with the Raji/DC-SIGN cells, unabsorbed virus and test compound were carefully removed by repeated washing steps, and the amount of captured virus was determined by measurement of the virus-associated p24 content on the Raji/DC-SIGN cell surface. The α(1-3)/(1-6)-mannose-specific plant lectin HHA was included as a positive control for inhibition of virus capture by Raji/DC-SIGN cells.
# Then, 0.5 ml exponentially growing Raji/DC-SIGN cells (10^6 cells) was added, and the suspension further incubated at 37°C for 60 minutes. Subsequently, 39 ml medium was added and the cell suspension was centrifuged at 300 g for 10 minutes. The obtained pellet was washed again with 40 ml medium and after centrifugation, the cell pellet (containing DC-SIGN-bound virus) was analyzed for p24 antigen content by ELISA. […] In the above-described experiments, the mannose-binding entry inhibitor HHA was included as a reference compound.
# [23] = test system: HIV-2 ROD; test: Anti-HIV activity in CEM cells (cytopathogenicity); format: cell-based; conditions: Human immunodeficiency virus 2, CCRF-CEM
# [24] = test system: HIV-2 ROD; test: GFP-assay in Jurkat A72 (LTR-GFP) cells; format: cell-based; conditions: Human immunodeficiency virus 2, 72 h, 3 days after infection
# [25] = virus incubated 1 h 37°C with 0.2 μM
# [26] = virus incubated 1 h 37°C with 1 μM
# [27] = virus incubated 1 h 37°C with 5 μM
# [28] = virus incubated 1 h 37°C with 25 μM
# [29] = virus incubated 1 h 37°C with 625 μM
# [30] = virus incubated at 26, 130 and 650 μM, 1 h 37°C
smiles,measurement,setting,value
"Cn1sc(=N)nc1-c1ccccc1 [WDO-217, 2-methyl-3-phenyl-2H-[1,2,4]thiadiazol-5-ylideneamine]",CCID50/ml HIV-2 ROD,[1]; [25],1.6 × 10^6 CCID50/ml
same,CCID50/ml HIV-2 ROD,[1]; [26],1 × 10^6 CCID50/ml
same,CCID50/ml HIV-2 ROD,[1]; [27],2.1 × 10^6 CCID50/ml
same,CCID50/ml HIV-2 ROD,[1]; [28],0 CCID50/ml
same,CCID50/ml HIV-2 ROD,[1]; [29],0 CCID50/ml
same,Infectivity of pre-incubated HIV-2 virus,[1]; [30],no longer able to infect cells
same,activity against replication of HSV,[2],inactive
same,covalent complex between NC(11-55) and compound,[3],no covalent complex
same,CC50,[4],94 ± 15 µM
same,CC50,[5],75 ± 11 µM
same,CCID50/ml BCF-Dioum subtype G,[6],2558 CCID50/ml
same,viral genomic RNA content after treatment,[7],clear decrease
same,CCID50/ml BZ163 subtype F,[8],2558 CCID50/ml
same,EC50,"[9]; Human immunodeficiency virus 1, IIIB, MT4, 120 h",5 ± 3 µM
same,EC50,[9],7.9 ± 3.3 µM
same,virus-associated p24 core protein after treatment,[10],did not affect
same,CCID50/ml UG270 subtype D,[11],6446 CCID50/ml
same,EC50,[12],1200 ± 100 nM
same,EC50,[13],8.3 ± 1.8 µM
same,activity against replication of CMV,[14],inactive
same,CCID50/ml HIV-1 IIIB,[15]; [25],5.4 × 10^6 CCID50/ml
same,CCID50/ml HIV-1 IIIB,[15]; [26],1.6 × 10^6 CCID50/ml
same,CCID50/ml HIV-1 IIIB,[15]; [27],1 × 10^6 CCID50/ml
same,CCID50/ml HIV-1 IIIB,[15]; [28],0 CCID50/ml
same,CCID50/ml HIV-1 IIIB,[15]; [29],0 CCID50/ml
same,Infectivity of pre-incubated HIV-1 virus,[15]; [30],no longer able to infect cells
same,EC50,[16],1700 ± 900 nM
same,EC50,[17],1040 ± 200 nM
same,activity against replication of VSV,[18],inactive
same,EC50,[19],900 ± 50 nM
same,CCID50/ml UG275 subtype A,[20],2558 CCID50/ml
same,EC50,[21],2300 ± 300 nM
same,IC50 HIV-capture procedure A,[22],not able to prevent binding
same,EC50,[23],15 ± 6.7 µM
same,EC50,[24],1040 ± 300 nM

# From publication PMC3542062, “A phenyl-thiadiazolylidene-amine derivative ejects zinc from retroviral nucleocapsid zinc fingers and inactivates HIV virions” (Retrovirology, 2012)
